Source: patent publication US8314098B2, “Pyrazolo-pyrimidine compounds” (Ajinomoto Co., Inc., priority 2008, dated 2012)

Columns and labels:
TNF-α = TNF-α production inhibition in macrophages derived from mouse abdomen (IFN-γ/SAC stimulation, ELISA); type: cell-based; settings: Macrophage; mouse (Balb/c) abdominal macrophages, 100 ng/mL mouse IFN-γ + 0.05% SAC, overnight; TFA salts tested where prepared as such; read-out: TNF-α-Inhibitory Activity IC50
Method: (§1) One milliliter each of a 3% (w/v) thioglycolate solution was intraperitoneally administered to mice (female Balb/c mice), the abdominal cells of each mouse were recovered after 5 or 6 days from the administration of the thioglycolate solution and the adhesive cells were collected and used in the exaluation procedures. To a culture medium containing such adhesive cells, there were added 100 ng/mL of mouse interferon-γ and a 0.05% (v/v) liquid containing killed cells derived from Staphylococcus aureus Cowan I strain (SAC) and a candidate compound and then the mixture was cultivated overnight. After the completion of the cultivation, the survival ratios were determined, there were quantitatively determined the quantities of IL-12p70 (the complex of IL-12p35 and p40) and IL-12p40 or TNF-α according to the ELISA assays while making use of the recovered supernatant of the culture medium and the 50% production-inhibitory concentration (IC50) was calculated for each case (see Table 1 and Tables 1-9 for IL-12p70 and TNF-α and Tables 1 to 10 for IL-12p40).

[1] = tested on: IL-12p70 (the complex of IL-12p35 and p40); test: IL-12p70 production inhibition in macrophages derived from mouse abdomen (IFN-γ/SAC stimulation, ELISA); type: cell-based; settings: Macrophage; mouse (Balb/c) abdominal macrophages, 100 ng/mL mouse IFN-γ + 0.05% SAC, overnight; TFA salts tested where prepared as such; read-out: IL-12p70-Inhibitory Activity IC50
Method in brief: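 Thioglycolate-elicited adherent peritoneal macrophages from female Balb/c mice were collected 5–6 days after dosing. Cells were stimulated overnight with 100 ng/mL mouse IFN-γ plus 0.05% (v/v) killed S. aureus Cowan I, with compound present. IL-12p70, IL-12p40 and TNF-α in supernatants were measured by ELISA and IC50s derived, with cell survival also checked.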

[2] = tested on: IL-12p70 (the complex of IL-12p35 and p40); test: IL-12p70 production inhibition in whole blood of mouse (IFN-γ/SAC stimulation, ELISA); type: cell-based; settings: mouse (Balb/c) whole blood, EDTA, 100 ng/mL mouse IFN-γ + 1.25% SAC, overnight; TFA salts tested where prepared as such
Method: The blood was recovered from the mice (female Balb/c mice) (containing added EDTA) and it was used for the evaluation. To a cell culture medium, there were added 100 ng/mL of mouse interferon-γ, 1.25% (v/v) of a liquid containing killed cells derived from Staphylococcus aureus Cowan I strain (SAC) and a candidate compound, the resulting mixture was diluted to a volume equivalent to the blood and then the diluted medium was cultivated overnight. After the completion of the cultivation, the amount of IL-12p70 (the complex of IL-12p35 and p40) was quantitatively determined according to the ELISA assays while making use of the recovered supernatant of the culture medium and the 50% production-inhibitory concentrations (IC50) were calculated for Compounds 38, 80, 82, 83, 84, 85, 87, 90 and 91. (see Table 3).

IL-12p40 = IL-12p40 production inhibition in macrophages derived from mouse abdomen (IFN-γ/SAC stimulation, ELISA); type: cell-based; settings: Macrophage; mouse (Balb/c) abdominal macrophages, 100 ng/mL mouse IFN-γ + 0.05% SAC, overnight
Method: as §1

mouse enteritis model = test: Inflammation-inhibitory action in mouse enteritis model (immigration of IL-10-/- cells), weight of large intestine; type: in vivo
Excerpt: The method for establishing the mouse enteritis model by the immigration of IL-10−/−cells is, for instance, disclosed in Gastroenterology. 2009 February; 136(2): 564-74.e2. Epub 2008 Oct. 7.
The following method was used for the determination of the weight of intestinal tract as an indication of the drug efficacy: On the final day of the autopsy, the large intestine extending from the anus to immediately before the blind gut was surgically excised, the contents of the intestinal tract were washed away with physiological saline, the moisture adhered thereto was roughly removed and then the weight thereof was determined.
The inflammation-inhibitory effect of Compound 1 on the mouse enteritis model was evaluated using this evaluation system and the results obtained were plotted on FIG. 1.

| Structure (SMILES) | IC50 (TNF-α) | IC50 [1] | IC50 [2] | IC50 (IL-12p40) | control effect on weight of the large intestine (mouse enteritis model; mouse enteritis model, 30 mg/kg once a day) | weight of the large intestine increased due to the immigration of IL-10-/- cells (mouse enteritis model; mouse enteritis model, 3, 10, 30 mg/kg, FIG. 1) |
| --- | --- | --- | --- | --- | --- | --- |
| Cc1cccc(/C=N/Nc2cc(N3CCOCC3)n3nc(-c4ccc(N5CCOCC5)nc4)cc3n2)c1 [Compound 85, N-(3-methyl-benzylidene)-N′-[7-morpholin-4-yl-2-(6-morpholin-4-yl-pyridin-3-yl)-pyrazolo[1,5-a]pyrimidin-5-yl]-hydrazine] | > 10000 nM | 3.2 nM | 4200 nM |  |  |  |
| Cc1cccc(/C=N/Nc2cc(N3CCOCC3)n3nc(-c4cccnc4)cc3n2)c1 [Compound 38, N-(3-methyl-benzylidene)-N′-(7-morpholin-4-yl-2-pyridin-3-yl-pyrazolo[1,5-a]pyrimidin-5-yl)-hydrazine] | > 10000 nM | 11 nM | 2700 nM |  |  |  |
| C(=N\Nc1cc(N2CCOCC2)n2nc(-c3ccncc3)cc2n1)/c1c[nH]c2ccccc12 [Compound 84, N-(1H-indol-3-yl-methylidene)-N′-(7-morpholin-4-yl-2-pyridin-4-yl-pyrazolo[1,5-a]pyrimidin-5-yl)-hydrazine] | > 10000 nM | 3.2 nM | 2300 nM |  |  |  |
| Cc1cccc(/C=N/Nc2cc(N3CCOCC3)n3nc(-c4ccncc4)cc3n2)c1 [Compound 83, N-(3-methyl-benzylidene)-N′-(7-morpholin-4-yl-2-pyridin-4-yl-pyrazolo[1,5-a]pyrimidin-5-yl)-hydrazine] | > 10000 nM | 8.4 nM | 880 nM | 11.3 nM | significant control effect | controlled in a dose of Compound 83-dependent manner |
| Cc1cccc(/C=N/Nc2cc(N3CC4C[C@H]3CO4)n3nc(-c4ccncc4)cc3n2)c1 [Compound 121, N-(3-methyl-benzylidene)-N′-[7-(2-oxo-5-azabicyclo-[2.2.1]hept-5-yl)-2-pyridin-4-yl-pyrazolo[1,5-a]pyrimidin-5-yl]-hydrazine] |  | 79 nM | 840 nM | 150 nM |  |  |
| C(=N\Nc1cc(N2CCOCC2)n2nc(-c3ccncc3)cc2n1)/c1ccc2cc[nH]c2c1 [Compound 117, N-(1H-indol-6-yl-methylidene)-N′-(7-morpholin-4-yl-2-pyridin-4-yl-pyrazolo[1,5-a]pyrimidin-5-yl)-hydrazine] |  | 56 nM | 280 nM | 97.8 nM |  |  |
| C(=N\Nc1cc(N2CCOCC2)n2nc(-c3ccncc3)cc2n1)/c1ccsc1 [Compound 91, N-(7-morpholin-4-yl-2-pyridin-4-yl-pyrazolo[1,5-a]-pyrimidin-5-yl)-N′-thiophen-3-yl-methylidene-hydrazine] |  | 48 nM | 4600 nM |  |  |  |
| C(=N\Nc1cc(N2CCOCC2)n2nc(-c3ccncc3)cc2n1)/c1ccc2[nH]ccc2c1 [Compound 104] |  | 100 nM | 2500 nM |  |  |  |
| C(=N\Nc1cc(N2CCOCC2)n2nc(-c3ccnnc3)cc2n1)/c1c[nH]c2ccccc12 [Compound 97, N-(1H-indol-3-yl-methylidene)-N-(7-morpholin-4-yl-2-pyridazin-4-yl-pyrazolo[1,5-a]pyrimidin-5-yl)-hydrazine] |  | 8.3 nM | 3200 nM |  |  |  |
| C(=N\Nc1cc(N2CCOCC2)n2nc(-c3cccnc3)cc2n1)/c1c[nH]c2ccccc12 [Compound 82, N-(1H-indol-3-yl-methylidene)-N′-(7-morpholin-4-yl-2-pyridin-3-yl-pyrazolo[1,5-a]pyrimidin-5-yl)-hydrazine] | > 10000 nM | 4.1 nM | 3200 nM |  |  |  |
| C(=N\Nc1cc(N2CCOCC2)n2nc(-c3ccncc3)cc2n1)/c1cc2ccccc2o1 [Compound 96] |  | 50 nM | 1100 nM |  |  |  |
| C(=N\Nc1cc(N2CCOCC2)n2nc(-c3ccncc3)cc2n1)/c1c[nH]c2ncccc12 [Compound 126, N-(7-morpholin-4-yl-2-pyridin-4-yl-pyrazolo[1,5-a]-pyrimidin-5-yl)-N′-(1H-pyrrolo[2,3-b]pyridin-3-yl-methylidene)-hydrazine] |  | 110 nM | 760 nM |  |  |  |
| Cc1cccc(/C=N/Nc2cc(N3CCOCC3)n3nc(-c4cnccn4)cc3n2)c1 [Compound 90, N-(3-methyl-benzylidene)-N′-(7-morpholin-4-yl-2-pyrazin-2-yl-pyrazolo[1,5-a]pyrimidin-5-yl)-hydrazine] |  | 8.3 nM | 2500 nM |  |  |  |
| Cc1cc2nc(N/N=C/c3c[nH]c4ccccc34)cc(N3CCOCC3)n2n1 [Compound 80, N-(1H-indol-3-yl-methylidene)-N′-(2-methyl-7-morpholin-4-yl-pyrazolo[1,5-a]pyrimidin-5-yl)-hydrazine] | > 10000 nM | 160 nM | 4900 nM |  |  |  |
| Cc1cccc(/C=N/Nc2cc(N3CC4COCC4C3)n3nc(-c4ccncc4)cc3n2)c1 (centres unmarked) [Compound 123, N-(3-methyl-benzylidene)-N′-[2-pyridin-4-yl-7-(tetrahydro-furo[3,4-c]pyrrol-5-yl)-pyrazolo[1,5-a]pyrimidin-5-yl]-hydrazine] |  | 300 nM | 440 nM |  |  |  |
| Cc1cccc(/C=N/Nc2cc(N3CCOCC3)n3nc(-c4ccncn4)cc3n2)c1 [Compound 119, N-(3-methyl-benzylidene)-N-(7-morpholin-4-yl-2-pyrimidin-4-yl-pyrazolo[1,5-a]pyrimidin-5-yl)-hydrazine] |  | 47 nM | 1000 nM | 70 nM |  |  |
| Cc1cccc(/C=N/Nc2cc(N3CCOCC3)n3nccc3n2)c1 [Compound 9, N-(3-methyl-benzylidene)-N′-(7-morpholin-4-yl-pyrazolo-[1,5-a]pyrimidin-5-yl)-hydrazine] | > 10000 nM | 141 nM |  | 136 nM |  |  |
